Results published in paper PMC9224473 (International Journal of Molecular Sciences, 2022).
Converted amounts (≈) assume the structure as drawn. Where two headings read alike, the source gives them in different places.

Assays:
[1] = tested on: HCT116 (human colon cancer); test: MTT cytotoxicity assay; format: cell-based; conditions: mean SD
Method: (§1) The human cell lines SW480 (primary colon cancer), SW620 (lymph node metastatic colon cancer from the same patient as primary cancer cells), HCT116 (colon carcinoma), HepG2 (liver cancer), and HaCaT (immortalized keratinocytes) were obtained from the American Type Culture Collection (ATCC, Rockville, MD, USA). The SW480, SW620 and HCT116 cells were grown in MEM (ThermoSci, Waltham, MA, USA), HepG2 and HaCaT in DMEM High Glucose (Biowest SAS, Nuaillé, France) supplemented with 10% foetal bovine serum (FBS), HEPES (20 mM), and antibiotics (100 U mL^−1 of Penicillin and 100 μg mL^−1 of Streptomycin). The cells were incubated in a humidified incubator at 37 °C/5% CO2, until 80–90% confluence was reached.
(§2) The cell viability was assessed by using of MTT salt [3-(4,5-dimethylthiazol-2-yl)-2,5-diphenyltetrazolium bromide] converted by mitochondrial dehydrogenase, occurring in living cells. The cells were seeded in 96-well plates at a density of 1 × 10^4 cells per well and allowed to adhere for 24 h at 37 °C in a CO2 humidified incubator. […]. The untreated cells were used as the control.
(§3) After 72 h incubation, the medium was replaced with 200 µL per well of free-serum medium containing 0.5 mg mL^−1 MTT and incubated for 4 h at 37 °C in a CO2 humidified incubator. Subsequently, the medium was removed and dimethyl sulfoxide (DMSO) with isopropanol (1:1) was added to dissolve the formazan crystals. The optical density was measured using UVM 340 reader (ASYS Hitech GmbH, Eugendorf, Austria) at a wavelength of 570 nm. The experiments were repeated three times. The cell viability was calculated as the percent of MTT reduced in treated cells versus control cells (untreated cells). The number of viable cells cultured without tested compounds was assumed as 100%. A decreased relative MTT level indicates decreased cell viability. The IC50 values were estimated using CompuSyn version 1.0.

[2] = tested on: HaCaT (human immortal keratinocyte cell line); test: MTT cytotoxicity assay; format: cell-based; conditions: 72 h, mean SD, read-out: IC50 HaCaT (normal cells)
Method: as §1, §2, §3

[3] = tested on: SW480 (human primary colon cancer); test: MTT cytotoxicity assay; format: cell-based; conditions: mean SD
Method: as §1, §2, §3

[4] = tested on: HepG2 (human liver cancer); test: MTT cytotoxicity assay; format: cell-based; conditions: mean SD
Method: as §1, §2, §3

[5] = tested on: E. coli 600; test: MIC, broth microdilution, clinical strain; format: cell-based, Escherichia coli; conditions: 35 °C; for MIC: Escherichia coli, 600, 19 h
[6] = tested on: S. epidermidis ATCC 12228; test: MIC, broth microdilution, standard strain; format: cell-based, Staphylococcus epidermidis; conditions: 35 °C; for MIC: Staphylococcus epidermidis, ATCC12228, 19 h
[7] = tested on: S. aureus ATCC 29213; test: MIC, broth microdilution, standard strain; format: cell-based, Staphylococcus aureus; conditions: 35 °C; for MIC: Staphylococcus aureus, ATCC29213, 19 h
[8] = tested on: S. pasteuri KR 4358; test: MIC, broth microdilution, clinical strain; format: cell-based, Staphylococcus pasteuri; conditions: 35 °C; for MIC: Staphylococcus pasteuri, KR4358, 19 h
[9] = tested on: E. coli 520; test: MIC, broth microdilution, clinical strain; format: cell-based, Escherichia coli; conditions: 35 °C; for MIC: Escherichia coli, 520, 19 h
[10] = tested on: P. aeruginosa ATCC 15442; test: MIC, broth microdilution, standard strain; format: cell-based, Pseudomonas aeruginosa; conditions: 35 °C; for MIC: Pseudomonas aeruginosa, ATCC15442, 19 h
[11] = tested on: S. aureus T 5595; test: MIC, broth microdilution, clinical strain; format: cell-based, Staphylococcus aureus; conditions: 35 °C; for MIC: Staphylococcus aureus, T5595, 19 h
[12] = tested on: S. epidermidis ATCC 35984; test: MIC, broth microdilution, standard strain; format: cell-based, Staphylococcus epidermidis; conditions: 35 °C; for MIC: Staphylococcus epidermidis, ATCC35984, 19 h
[13] = tested on: E. coli 510; test: MIC, broth microdilution, clinical strain; format: cell-based, Escherichia coli; conditions: 35 °C; for MIC: Escherichia coli, 510, 19 h
[14] = tested on: S. epidermidis KR 4243; test: MIC, broth microdilution, clinical strain; format: cell-based, Staphylococcus epidermidis; conditions: 35 °C; for MIC: Staphylococcus epidermidis, KR4243, 19 h
[15] = tested on: E. coli ATCC 25922; test: MIC, broth microdilution, standard strain; format: cell-based, Escherichia coli; conditions: 35 °C; for MIC: Escherichia coli, ATCC25922, 19 h; for MIC E. coli ATCC 25922: 19 h
[16] = tested on: P. aeruginosa 659; test: MIC, broth microdilution, clinical strain; format: cell-based, Pseudomonas aeruginosa; conditions: for MIC: Pseudomonas aeruginosa, 659, read-out: MIC P. aeruginosa 659, 19 h, 35 °C
[17] = tested on: S. aureus NCTC 4163; test: MIC, broth microdilution, standard strain; format: cell-based, Staphylococcus aureus; conditions: 35 °C; for MIC: Staphylococcus aureus, NCTC4163, 19 h
[18] = tested on: SW620 (human metastatic colon cancer); test: MTT cytotoxicity assay; format: cell-based; conditions: mean SD
Method: as §1
The cell viability was assessed by using of MTT salt [3-(4,5-dimethylthiazol-2-yl)-2,5-diphenyltetrazolium bromide] converted by mitochondrial dehydrogenase, occurring in living cells. […] The untreated cells were used as the control.
as §3, with “Subsequently,” for “After 72 h incubation, the medium was replaced with 200 µL per well of free-serum medium containing 0.5 mg mL^−1 MTT and incubated for 4 h at 37 °C in a CO2 humidified incubator. Subsequently,”

[19] = tested on: S. aureus ATCC 6538; test: MIC, broth microdilution, standard strain; format: cell-based, Staphylococcus aureus; conditions: 35 °C; for MIC: Staphylococcus aureus, ATCC6538, 19 h
[20] = tested on: S. aureus T 5591; test: MIC, broth microdilution, clinical strain; format: cell-based, Staphylococcus aureus; conditions: 35 °C; for MIC: Staphylococcus aureus, T5591, 19 h
[21] = tested on: S. aureus ATCC 25923; test: MIC, broth microdilution, standard strain; format: cell-based, Staphylococcus aureus; conditions: 35 °C; for MIC: Staphylococcus aureus, ATCC25923, 19 h

CC(C)[C@@H]1CC[C@@H](C)C[C@H]1OC(=O)CCCCN1CCN(c2cc3c(cc2F)c(=O)c(C(=O)O)cn3C2CC2)CC1 [Compound 5, 1-cyclopropyl-6-fluoro-7-{4-[5-((1R,2S,5R)-2-isopropyl-5-methylcyclohexyloxy)-5-oxopentyl)piperazin-1-yl)-4-oxo-1,4-dihydroquinoline-3-carboxylic acid]
IC50 ([1]; Homo sapiens, HCT-116, 72 h): 35.3 ± 1.7 µM | IC50 ([2]; Homo sapiens, HaCaT): 43.3 ± 4.4 µM | IC50 ([3]; Homo sapiens, SW480, 72 h): 55.4 ± 3.8 µM | IC50 ([4]; Homo sapiens, HepG2, 72 h): 49.4 ± 4.6 µM | MIC [5]: 64 µg/mL (≈ 112 µM) | MIC [6]: 8 µg/mL (≈ 14 µM) | MIC [7]: 4 µg/mL (≈ 7.02 µM) | MIC [8]: 4 µg/mL (≈ 7.02 µM) | MIC [9]: 64 µg/mL (≈ 112 µM) | MIC [10]: 256 µg/mL (≈ 449 µM) | MIC [11]: 4 µg/mL (≈ 7.02 µM) | MIC [12]: 8 µg/mL (≈ 14 µM) | MIC [13]: > 256 µg/mL | MIC [14]: 4 µg/mL (≈ 7.02 µM) | MIC [15]: 16 µg/mL (≈ 28.1 µM) | MIC [16]: > 256 µg/mL | MIC [17]: 4 µg/mL (≈ 7.02 µM) | IC50 ([18]; Homo sapiens, SW-620, 72 h): 26.5 ± 2.1 µM | MIC [19]: 4 µg/mL (≈ 7.02 µM) | MIC [20]: 2 µg/mL (≈ 3.51 µM) | MIC [21]: 8 µg/mL (≈ 14 µM)

1-cyclopropyl-6-fluoro-7-{4-[2-(2-isopropyl-5-methylphenoxy)acetyl]piperazin-1-yl}-4-oxo-1,4-dihydroquinoline-3-carboxylic acid [Compound 10]
IC50 ([1]; 72 h): > 100 µM | IC50 [2]: 37.1 ± 2.1 µM | IC50 ([3]; 72 h): 57.2 ± 2.7 µM | IC50 ([4]; 72 h): 26.1 ± 0.1 µM | MIC E. coli 600 ([5]; 19 h): 64 µg/mL | MIC S. epidermidis ATCC 12228 ([6]; 19 h): 8 µg/mL | MIC S. aureus ATCC 29213 ([7]; 19 h): 4 µg/mL | MIC S. pasteuri KR 4358 ([8]; 19 h): 16 µg/mL | MIC E. coli 520 ([9]; 19 h): 64 µg/mL | MIC P. aeruginosa ATCC 15442 ([10]; 19 h): 256 µg/mL | MIC S. aureus T 5595 ([11]; 19 h): 8 µg/mL | MIC S. epidermidis ATCC 35984 ([12]; 19 h): 8 µg/mL | MIC E. coli 510 ([13]; 19 h): >256 µg/mL | MIC S. epidermidis KR 4243 ([14]; 19 h): 16 µg/mL | MIC E. coli ATCC 25922 [15]: 32 µg/mL | MIC P. aeruginosa 659 ([16]; 19 h, 35 °C): 256 µg/mL | MIC S. aureus NCTC 4163 ([17]; 19 h): 4 µg/mL | IC50 ([18]; 72 h): 59 ± 1.2 µM | MIC S. aureus ATCC 6538 ([19]; 19 h): 4 µg/mL | MIC S. aureus T 5591 ([20]; 19 h): 8 µg/mL | MIC S. aureus ATCC 25923 ([21]; 19 h): 4 µg/mL

Cc1ccc(C(C)C)c(OC(=O)CCCCN2CCN(c3cc4c(cc3F)c(=O)c(C(=O)O)cn4C3CC3)CC2)c1 [Compound 13, 1-cyclopropyl-6-fluoro-7-{4-[5-(2-isopropyl-5-methylphenoxy)-5-oxopentyl]piperazin-1-yl}-4-oxo-1,4-dihydroquinoline-3-carboxylic acid]
IC50 ([1]; Homo sapiens, HCT-116, 72 h): 50.2 ± 3.4 µM | IC50 ([2]; Homo sapiens, HaCaT): > 100 µM | IC50 ([3]; Homo sapiens, SW480, 72 h): 48.1 ± 2.8 µM | IC50 ([4]; Homo sapiens, HepG2, 72 h): 33.8 ± 2.1 µM | MIC [5]: 8 µg/mL (≈ 14.2 µM) | MIC [6]: 2 µg/mL (≈ 3.55 µM) | MIC [7]: 2 µg/mL (≈ 3.55 µM) | MIC [8]: 2 µg/mL (≈ 3.55 µM) | MIC [9]: 4 µg/mL (≈ 7.1 µM) | MIC [10]: 16 µg/mL (≈ 28.4 µM) | MIC [11]: 2 µg/mL (≈ 3.55 µM) | MIC [12]: 2 µg/mL (≈ 3.55 µM) | MIC [13]: 128 µg/mL (≈ 227 µM) | MIC [14]: 2 µg/mL (≈ 3.55 µM) | MIC E. coli ATCC 25922 [15]: 4 µg/mL (≈ 7.1 µM) | MIC [15]: 2 to 4 µg/mL (≈ 3.55 to 7.1 µM) | MIC [16]: 128 µg/mL (≈ 227 µM) | MIC [17]: 2 µg/mL (≈ 3.55 µM) | IC50 ([18]; Homo sapiens, SW-620, 72 h): 50.2 ± 0.8 µM | MIC [19]: 2 µg/mL (≈ 3.55 µM) | MIC [20]: 2 µg/mL (≈ 3.55 µM) | MIC [21]: 4 µg/mL (≈ 7.1 µM)

CC(C)[C@@H]1CC[C@@H](C)C[C@H]1OC(=O)CCN1CCN(c2cc3c(cc2F)c(=O)c(C(=O)O)cn3C2CC2)CC1 [Compound 3, 1-cyclopropyl-6-fluoro-7-{4-[3-((1R,2S,5R)-2-isopropyl-5-methylcyclohexyloxy)-3-oxopropyl]piperazin-1-yl}-4-oxo-1,4-dihydroquinoline-3-carboxylic acid]
IC50 ([1]; Homo sapiens, HCT-116, 72 h): 27.1 ± 3.1 µM | IC50 ([2]; Homo sapiens, HaCaT): 45.5 ± 5.1 µM | IC50 ([3]; Homo sapiens, SW480, 72 h): 30.3 ± 1.2 µM | IC50 ([4]; Homo sapiens, HepG2, 72 h): 36.8 ± 3.8 µM | MIC [5]: 4 µg/mL (≈ 7.38 µM) | MIC [6]: 4 µg/mL (≈ 7.38 µM) | MIC [7]: 4 µg/mL (≈ 7.38 µM) | MIC [8]: 4 µg/mL (≈ 7.38 µM) | MIC [9]: 4 µg/mL (≈ 7.38 µM) | MIC [10]: 32 µg/mL (≈ 59.1 µM) | MIC [11]: 4 µg/mL (≈ 7.38 µM) | MIC [12]: 4 µg/mL (≈ 7.38 µM) | MIC [13]: 256 µg/mL (≈ 473 µM) | MIC [14]: 4 µg/mL (≈ 7.38 µM) | MIC E. coli ATCC 25922 [15]: 4 µg/mL (≈ 7.38 µM) | MIC [15]: 2 to 4 µg/mL (≈ 3.69 to 7.38 µM) | MIC [16]: 64 µg/mL (≈ 118 µM) | MIC [17]: 4 µg/mL (≈ 7.38 µM) | IC50 ([18]; Homo sapiens, SW-620, 72 h): 38.6 ± 3.8 µM | MIC [19]: 4 µg/mL (≈ 7.38 µM) | MIC [20]: 4 µg/mL (≈ 7.38 µM) | MIC [21]: 4 µg/mL (≈ 7.38 µM)
